{"source": "EPA's ToxValDB 9.5", "key": {"[1]": {"system": "Rattus norvegicus", "settings": "repeat dose other; oral"}, "[2]": {"system": "Canidae", "settings": "oral, diet, M/F, Dog Other"}, "[3]": {"system": "Rattus norvegicus"}, "[4]": {"system": "Rattus norvegicus", "remark": "listed apart in the source"}, "[5]": {"system": "Rattus norvegicus", "settings": "oral, M/F"}, "[6]": {"system": "Rattus norvegicus", "settings": "oral"}, "[7]": {"system": "Rattus norvegicus", "settings": "oral, gavage"}, "[8]": {"system": "Rattus norvegicus", "settings": "uterotrophic, oral, Active"}, "[9]": {"settings": "chronic, duration: 1 years, tremors"}, "[10]": {"settings": "chronic, duration: 1 years, chronic pneumonitis"}, "[11]": {"settings": "chronic, duration: 26 weeks, increased organ weight"}, "[12]": {"settings": "duration: 2 years, feed, M/F, Crl:CD(SD), reduced weight gain"}, "[13]": {"settings": "subchronic, duration: 90 days, diet, reduced weight gain, food consumption increased relative liver weight"}, "[14]": {"settings": "short-term, duration: 28 days, M, Sprague-Dawley, Clinical Observation: Spontaneous locomotion decrease, Respiratory rate decrease, Incomplete eyelid opening SalivationLacrimation Stool …"}, "[15]": {"settings": "short-term, duration: 28 days, M, Sprague-Dawley, Clinical Observation: Locomotor activity decrease, Salivation + Functional Observational Battery: Locomotor activity decrease, Salivation + …"}, "[16]": {"settings": "chronic, duration: 106 weeks, liver and kidney degeneration and bone marrow atrophy"}, "[17]": {"settings": "subchronic, increased liver weight and centrilobular hypertrophy"}, "[18]": {"settings": "subchronic, duration: 90 days, sedation and tonoclonic spasms reduced food intake and body weight hematological effects"}}, "note": "Values joined by “and” are separate entries in the source; they are usually repeats but may differ in a detail not shown here. Identical values can stand only once.", "data": [{"compound": "Clc1cc2oc3cc(Cl)c(Cl)c(Cl)c3c2cc1Cl", "note": "[1,2,3,7,8-Pentachlorodibenzofuran]", "values": [{"measurement": "LOAEL", "setting": "[1]", "value": 0.0016, "unit": "mg/kg-day"}, {"measurement": "NOAEL", "setting": "[1]", "value": 0.00016, "unit": "mg/kg-day"}]}, {"compound": "CC1(C)C(C(=O)OC(C#N)c2cccc(Oc3ccccc3)c2)C1(C)C", "note": "(stereo unspecified) [Fenpropathrin]", "values": [{"measurement": "LOAEL", "setting": "[2]; [9]", "value": 6.25, "unit": "mg/kg-day"}, {"measurement": "NOAEL", "setting": "[2]; [9]", "value": 2.5, "unit": "mg/kg-day"}]}, {"compound": "CCOP(=S)(OCC)Oc1cc(C)nc(C(C)C)n1", "note": "[Diazinon]", "values": [{"measurement": "NOAEL", "setting": "[3]; chronic, duration: 98 weeks, oral, diet, M/F, Sprague-Dawley, neurological", "value": 0.065, "unit": "mg/kg-day"}, {"measurement": "NOAEL", "setting": "[3]; chronic, duration: 92 days, oral, diet, F, Wistar, neurological", "value": 0.6, "unit": "mg/kg-day"}, {"measurement": "NOAEL", "setting": "[3]; short-term, duration: 3 weeks, inhalation, nose only, M/F, albino, neurological", "value": 1.57, "unit": "mg/m3"}, {"measurement": "NOAEL", "setting": "[4]; subchronic, duration: 42 days, oral, diet, Blood: Decreased cholinesterase activity", "value": 0.09, "unit": "mg/kg-day"}]}, {"compound": "C[n+]1ccc(-c2cc[n+](C)cc2)cc1", "note": "[Paraquat]", "values": [{"measurement": "LEL", "setting": "[2]; [10]", "value": 0.93, "unit": "mg/kg-day"}, {"measurement": "NOEL", "setting": "[2]; [10]", "value": 0.45, "unit": "mg/kg-day"}]}, {"compound": "CC1(C)CN=C(NN=C(C=Cc2ccc(C(F)(F)F)cc2)C=Cc2ccc(C(F)(F)F)cc2)NC1", "note": "[Hydramethylnon]", "values": [{"measurement": "LEL", "setting": "[2]; [11]", "value": 1, "unit": "mg/kg-day"}, {"measurement": "NOEL", "setting": "[2]; [11]", "value": 0.33, "unit": "mg/kg-day"}]}, {"compound": "C=C(C)C(=O)OC", "note": "[Methyl methacrylate]", "values": [{"measurement": "NOAEL", "setting": "[5]; chronic, drinking water, no effects", "value": 136, "unit": "mg/kg-day"}, {"measurement": "NOEL", "setting": "[4]; chronic, duration: 24 months, oral, drinking water, Kidney: Increased relative weight", "value": 7.5, "unit": "mg/kg-day"}]}, {"compound": "O=C=Nc1ccc(Cc2ccc(N=C=O)cc2)cc1", "note": "[4,4'-Diphenylmethane diisocyanate]", "values": [{"measurement": "NOAEL", "setting": "[4]; chronic, duration: 24 months, inhalation, intermittent, Nasal cavity: Lesions", "value": 0.2, "unit": "mg/m3"}]}, {"compound": "CN[C@@H]1[C@H](O[C@H]2[C@H](O[C@H]3[C@H](O)[C@@H](O)[C@H](N=C(N)N)[C@@H](O)[C@@H]3N=C(N)N)O[C@@H](C)[C@]2(O)C=O)O[C@@H](CO)[C@H](O)[C@H]1O", "note": "[Streptomycin A]", "values": [{"measurement": "LOEL", "setting": "[6]; [12]", "value": 10, "unit": "mg/kg-day"}, {"measurement": "NOEL", "setting": "[6]; [12]", "value": 5, "unit": "mg/kg-day"}]}, {"compound": "CC(C)N(C(=O)CCl)c1ccccc1", "note": "[Propachlor]", "values": [{"measurement": "LEL", "setting": "[5]; [13]", "value": 133, "unit": "mg/kg-day"}, {"measurement": "NOEL", "setting": "[5]; [13]", "value": 13.3, "unit": "mg/kg-day"}, {"measurement": "NOEL", "setting": "[4]; subchronic, duration: 90 days, oral, diet, Whole body: Decreased weight gain", "value": 13.3, "unit": "mg/kg-day"}]}, {"compound": "ClCC(Cl)CCl", "note": "[1,2,3-Trichloropropane]", "values": [{"measurement": "NOEL", "setting": "[7]; chronic, duration: 17 weeks, M/F, Fischer 344, Deaths + Body Weight Changes: decrease + Hematology: Hct decrease, RBC decrease, Hgb decrease + Blood Chemistry: Na decrease, Alb increase, …", "value": "< 8", "unit": "mg/kg-day"}, {"measurement": "NOAEL", "setting": "[7]; [14]", "value": "< 15", "unit": "mg/kg-day"}, {"measurement": "NOEL", "setting": "[7]; [14]", "value": "< 15", "unit": "mg/kg-day"}, {"measurement": "NOAEL", "setting": "[3]; short-term, duration: 11 days, inhalation, M/F, Fischer 344, respiratory", "value": 6.03, "unit": "mg/m3"}, {"measurement": "NOAEL", "setting": "[4]; chronic, duration: 120 days, oral, Blood: Decreased hematocrit + Blood: Decreased hemoglobin + Erythrocytes: Decreased count + Kidney: Lesions + Liver: Lesions + Whole body: …", "value": 8, "unit": "mg/kg-day"}]}, {"compound": "ClC(Cl)(Cl)Cl", "note": "[Carbon tetrachloride]", "values": [{"measurement": "NOAEL", "setting": "[1]", "value": 16, "unit": "mg/kg-day"}, {"measurement": "NOAEL", "setting": "[7]; [15]", "value": "< 20", "unit": "mg/kg-day"}, {"measurement": "NOEL", "setting": "[7]; [15]", "value": "< 20", "unit": "mg/kg-day"}, {"measurement": "NOAEL", "setting": "[3]; chronic, duration: 104 weeks, inhalation, whole body, M/F, Fischer 344, hepatic", "value": 31.5, "unit": "mg/m3"}, {"measurement": "NOAEL", "setting": "[3]; chronic, duration: 205 days, inhalation, M/F, Wistar, hepatic", "value": 31.5, "unit": "mg/m3"}, {"measurement": "LOAEL", "setting": "[3]; short-term, duration: 10 days, oral, gavage, M, Fischer 344, hepatic", "value": 5, "unit": "mg/kg-day"}, {"measurement": "NOAEL", "setting": "[3]; subchronic, duration: 12 weeks, oral, gavage, M, Sprague-Dawley, hepatic", "value": 1, "unit": "mg/kg-day"}]}, {"compound": "Oc1cc(Cl)ccc1Oc1ccc(Cl)cc1Cl", "note": "[Triclosan]", "values": [{"measurement": "LEL", "setting": "[8]; duration: 3 days", "value": "4.69 mg/kg-day and 7.5 mg/kg-day"}, {"measurement": "LEL", "setting": "[8]; duration: 20 days", "value": 150, "unit": "mg/kg-day"}, {"measurement": "NOEL", "setting": "[4]; short-term, duration: 4 weeks, oral, Whole body: Decreased weight", "value": 500, "unit": "mg/kg-day"}]}, {"compound": "[Cl-].[Cl-].[Sr+2]", "note": "[Strontium chloride]", "values": [{"measurement": "NOAEL", "setting": "[1]", "value": 263, "unit": "mg/kg-day"}]}, {"compound": "CCCCN(CC)C(=O)SCCC", "note": "[Pebulate]", "values": [{"measurement": "NOEL", "setting": "[4]; subchronic, oral, diet, Blood: Increased clotting time", "value": 5, "unit": "mg/kg-day"}]}, {"compound": "CSc1nc(NC(C)C)nc(NC(C)C)n1", "note": "[Prometryn]", "values": [{"measurement": "LEL", "setting": "[2]; [16]", "value": 37.5, "unit": "mg/kg-day"}, {"measurement": "NOEL", "setting": "[2]; [16]", "value": 3.75, "unit": "mg/kg-day"}]}, {"compound": "Oc1c(Cl)cc(Cl)c2cccnc12.Oc1c(Cl)ccc2cccnc12.Oc1ccc(Cl)c2cccnc12", "note": "[Halquinols]", "values": [{"measurement": "NOAEL", "setting": "[6]; chronic, duration: 1 years, Histopathological changes in the kidney", "value": 15, "unit": "mg/kg-day"}]}, {"compound": "Oc1c(Cl)cc(Cl)c(Cl)c1Cl", "note": "[2,3,4,6-Tetrachlorophenol]", "values": [{"measurement": "LOAEL", "setting": "[5]; [17]", "value": 100, "unit": "mg/kg-day"}, {"measurement": "NOAEL", "setting": "[5]; [17]", "value": 25, "unit": "mg/kg-day"}, {"measurement": "NOAEL", "setting": "[4]; subchronic, duration: 90 days, oral, gavage, Liver: Centrilobular hypertrophy + Liver: Increased weight", "value": 25, "unit": "mg/kg-day"}]}, {"compound": "[Na+].[O]=[V](=[O])[O-]", "note": "[Sodium metavanadate]", "values": [{"measurement": "LOAEL", "setting": "[1]", "value": 2.1, "unit": "mg/kg-day"}, {"measurement": "NOAEL", "setting": "[1]", "value": 0.21, "unit": "mg/kg-day"}, {"measurement": "NOAEL", "setting": "[4]; subchronic, duration: 3 months, oral, drinking water, Kidney: Impaired function", "value": 1.52, "unit": "mg/kg-day"}]}, {"compound": "N#CSCSc1nc2ccccc2s1", "note": "[2-(Thiocyanomethylthio)benzothiazole]", "values": [{"measurement": "NOEL", "setting": "[4]; subchronic, oral, diet, Stomach: Lesions", "value": 25, "unit": "mg/kg-day"}]}, {"compound": "Brc1cc(-c2ccc(Br)c(Br)c2Br)cc(Br)c1Br", "note": "[Polybrominated biphenyls (PBB)]", "values": [{"measurement": "LOAEL", "setting": "[4]; chronic, duration: 25 weeks, oral, gavage, Liver: Increased weight + Liver: Lesions", "value": 0.07, "unit": "mg/kg-day"}]}, {"compound": "C1=CCC=C1", "note": "[1,3-Cyclopentadiene]", "values": [{"measurement": "NOEL", "setting": "[4]; chronic, duration: 194 days, inhalation, intermittent, Kidney: Lesions + Liver: Lesions", "value": 87.3, "unit": "mg/kg-day"}]}, {"compound": "C[N+]1(C)CCCCC1.[Cl-]", "note": "[1,1-Dimethylpiperidinium chloride]", "values": [{"measurement": "LEL", "setting": "[2]; [18]", "value": 75, "unit": "mg/kg-day"}, {"measurement": "NOEL", "setting": "[2]; [18]", "value": 25, "unit": "mg/kg-day"}]}]}
